As usually defined, the IC50 is the concentration needed to halve the response being measured.

Data on 31 compounds can be found in patent publication US12240840B2, “Amide-substituted heterocyclic compounds for the treatment of conditions related to the modulation of IL-12, IL-23 and/or IFN-alpha” (BRISTOL-MYERS SQUIBB COMPANY, priority 2018, dated 2025).

A value given as a limit tells only on which side of the number the result lay.

The subject of the assay is IFNα-induced pSTAT5 (pY694) in CD3 positive cells of human whole blood. Put plainly: IFNα-Induced STAT Phosphorylation in Human Whole Blood. In kind it is cell-based. Conditions: Homo sapiens, 1 h compound incubation, 1000 U/mL recombinant human IFNα A/D for 15 min, pSTAT5 in CD3 positive population, read-out: Human WB IFNα-Induced Stat Phosph. (IC50). The method in brief:
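Read-out is median fluorescence intensity of pSTAT5 (pY694) in the CD3-positive gate, by flow cytometry after fix/lyse and permeabilization. Before that, whole human blood anticoagulated with EDTA or ACD-A received compound for an hour and 1000 U/mL IFNα A/D for 15 min.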
With `[2H]C([2H])([2H])NC(=O)c1nnc(NC(=O)C2CC2)cc1Nc1cc(F)cc(-c2nc(CN3CCOCC3)no2)c1OC` [Example 230], the concentration for half-maximal inhibition (IC50) came to 510 nM.

For the compound `[2H]C([2H])([2H])NC(=O)c1nnc(NC(=O)C2CC2)cc1Nc1cccc(-c2cc(C(=O)N3CCC(N(C)C)CC3)n(C)n2)c1OC` [Example 529], the IC50 is 200 nM.

Take `[2H]C([2H])([2H])NC(=O)c1nnc(NC(=O)C2CC2)cc1Nc1cccc(-c2ncc(C(=O)NCCC(C)C)s2)c1OC` [Example 305]: the IC50 turned out to be 220 nM.

For the compound `[2H]C([2H])([2H])NC(=O)c1cnc(NC(=O)C2CC2)cc1Nc1cccc(-c2cnn(CCNC(=O)C(C)(C)O)n2)c1OC` [Example 443], the IC50 turned out to be 270 nM.

For `[2H]C([2H])([2H])NC(=O)c1nnc(NC(=O)C2CC2)cc1Nc1cccc(-c2ncc(CNC(=O)OC(C)(C)C)s2)c1OC` [Example 259], the IC50 is > 10000 nM.

With `[2H]C([2H])([2H])NC(=O)c1nnc(NC(=O)C2CC2)cc1Nc1cccc(-c2nc([C@@H](N)CO)no2)c1OC` [Example 201], the IC50 amounted to 290 nM.

For `[2H]C([2H])([2H])NC(=O)c1nnc(NC(=O)C2CC2)cc1Nc1cccc(-c2ncc(C(C)(C)O)s2)c1OC` [Example 267], the IC50 amounted to 150 nM.

For `[2H]C([2H])([2H])NC(=O)c1nnc(NC(=O)C2CC2)cc1Nc1cccc(-c2ncc(C(=O)NCCCN3CCCC3)s2)c1OC` [Example 340], the IC50 came to 100 nM.

With `[2H]C([2H])([2H])NC(=O)c1nnc(NC(=O)C2CC2)cc1Nc1cccc(-c2nc(CNS(C)(=O)=O)no2)c1OC` [Example 146], the IC50 turned out to be 210 nM.

Take `[2H]C([2H])([2H])NC(=O)c1nnc(NC(=O)C2CC2)cc1Nc1cc(F)cc(-c2cc(C(=O)N3CCN(CCO)CC3)n(C)n2)c1OC` [Example 484]: the IC50 turned out to be 100 nM.

For `COc1c(Nc2cc(NC(=O)C3CC3)nnc2C(N)=O)cccc1-c1noc(CNS(=O)(=O)c2ccccc2)n1` [Example 13], the IC50 was found to be 24 nM.

With `[2H]C([2H])([2H])NC(=O)c1nnc(NC(=O)C2CC2)cc1Nc1cccc(-c2noc(C(=O)N3CCS(=O)(=O)CC3)n2)c1OC` [Example 20], the IC50 was 1500 nM.

Regarding `[2H]C([2H])([2H])NC(=O)c1nnc(NC(=O)C2CC2)cc1Nc1cccc(-c2ccn(CCNC[C@H](O)CC)n2)c1OC` [Example 474], the IC50 was 3560 nM.

For `COc1c(Nc2cc(NC(=O)C3CC3)nnc2C(N)=O)cccc1-c1noc(CN(C)S(=O)(=O)CC(F)(F)F)n1` [Example 55], the IC50 stood at 40 nM.

As to `[2H]C([2H])([2H])NC(=O)c1cnc(NC(=O)C2CC2)cc1Nc1cccc(-c2nc(CCO)no2)c1OC` [Example 228], the IC50 came to 180 nM.

Take `[2H]C([2H])([2H])NC(=O)c1nnc(NC(=O)C2CC2)cc1Nc1cccc(-c2nc(CN3CCN(C(=O)C4CC4)CC3)no2)c1OC` [Example 132]: the IC50 was 300 nM.

As to `[2H]C([2H])([2H])NC(=O)c1nnc(NC(=O)C2CC2)cc1Nc1cccc(-c2nc([C@@H](C)NC(=O)OC)no2)c1OC` [Example 192], the IC50 came out at 870 nM.

With `[2H]C([2H])([2H])NC(=O)c1cnc(NC(=O)C2CC2)cc1Nc1cccc(-c2noc(CO)n2)c1OC` [Example 98], the IC50 came out at 23 nM.

Take `[2H]C([2H])([2H])NC(=O)c1nnc(NC(=O)C2CC2)cc1Nc1cccc(-c2ncc(C(=O)NCCOC)s2)c1OC` [Example 271]: the IC50 turned out to be 90 nM.

In the case of `[2H]C([2H])([2H])NC(=O)c1nnc(NC(=O)C2CC2)cc1Nc1cccc(-c2noc([C@H](C)O)n2)c1OC` [Example 84], the IC50 worked out at 130 nM.

As for `[2H]C([2H])([2H])NC(=O)c1nnc(Nc2cc(C)n(C)n2)cc1Nc1cc(F)cc(-c2cc(C(=O)N(C)C)n(C)n2)c1OC` [Example 548], the IC50 is 170 nM.

For the compound `[2H]C([2H])([2H])NC(=O)c1nnc(NC(=O)C2CC2)cc1Nc1cc(F)cc(-c2cc(C(=O)N(C)CCCN(C)C)n(C)n2)c1OC` [Example 510], the IC50 came to 460 nM.

Regarding `[2H]C([2H])([2H])NC(=O)c1nnc(NC(=O)C2CC2)cc1Nc1cccc(-c2ncc(C(=O)NCC#N)s2)c1OC` [Example 300], the IC50 was 330 nM.

For the compound `[2H]C([2H])([2H])NC(=O)c1nnc(NC(=O)C2CC2)cc1Nc1cccc(-c2ncc(C(=O)NCCCN3CCN(C(C)C)CC3)s2)c1OC` [Example 341], the IC50 was 110 nM.

On to `[2H]C([2H])([2H])NC(=O)c1nnc(NC(=O)C2CC2)cc1Nc1cccc(-c2ncc(C(=O)NCCN3CCN(C)CC3)s2)c1OC` [Example 322], for which the IC50 came out at 80 nM.

As for `[2H]C([2H])([2H])NC(=O)c1cnc(NC(=O)C2CC2)cc1Nc1cccc(-c2noc(COCC)n2)c1OC` [Example 91], the IC50 came out at 50 nM.

In the case of `COc1c(Nc2cc(NC(=O)C3CC3)nnc2C(N)=O)cccc1-c1noc(CNS(=O)(=O)C(C)C)n1` [Example 50], the IC50 turned out to be 70 nM.

Regarding `[2H]C([2H])([2H])NC(=O)c1nnc(NC(=O)C2CC2)cc1Nc1cccc(-c2nc(CC(=O)NCC)no2)c1OC` [Example 178], the IC50 turned out to be 550 nM.

As to `[2H]C([2H])([2H])NC(=O)c1nnc(NC(=O)C2CC2)cc1Nc1cccc(-n2cc(CO)nn2)c1OC` [Example 3], the IC50 came to 980 nM.

For the compound `[2H]C([2H])([2H])NC(=O)c1nnc(NC(=O)C2CC2)cc1Nc1cccc(-c2nc([C@@H](C)NC(=O)OC(C)(C)C)no2)c1OC` [Example 193], the IC50 is 7360 nM.

With `[2H]C([2H])([2H])NC(=O)c1nnc(NC(=O)C2CC2)cc1Nc1cccc(-c2ncc(C(=O)NCCCN(C)C)s2)c1OC` [Example 317], the IC50 is 30 nM.
